Where no end group is shown, it is not given here.
Tests used:
[1] = test system: CD8+ mediated T lymphocyte response; assay: Priming of a CD8+ T lymphocyte response by epicutaneous lipopeptide application (IFN-γ by lymph node cells); assay type: in vivo, C57BL/6 mice; conditions: 1 mg on shaved abdomen once a day during one week, read one week later, vs untreated or vehicle; FIG. 3
Experimental: (§1) TRP2180-188 lipopeptide and OVA323-339-lipopeptide were diluted at 10 mg/ml in olive oil. Mice were treated during by applying 1 mg lipopeptide or olive oil directly on shaved abdominal skin.
Sandwich ELISA was used to measure IFN-γ. In brief, ELISA plates (Polylabo, France) were coated with the appropriate coating mAbs (monoclonal antibodies) in carbonate buffer and incubated at 4° C. overnight. Plates were blocked for 30 mn at room temperature with 150 μl of 20% FCS/PBS to each well. 50 μl supernatants from in vitro stimulated cells were then added to the plates and incubated overnight at 4° C. After a washing step, 50 μl/well of the biotinylated second-step Ab was added. Plates were incubated for 1 h at room temperature and washed. The enzyme conjugate (streptavidin-peroxidase) was then added to each well. […] Plates were read on an ELISA reader at a wavelength of 405 nm after color development (Labsystems iEMS reader, Helsinki, Finland). […]
The inventors first wanted to know whether the epicutaneous application of a MHC class I restricted peptide formulated as a lipopeptide could prime a T CD8^+ lymphocyte mediated immune response in mice. […] One week after the last lipopeptide application, mice were sacrificed and the production of IFN-γ by skin draining lymph nodes cells was measured in vitro upon restimulation with the TRP2180-188 peptide.

[2] = test system: CD8+ mediated T lymphocyte response; assay: Enhancement of a CD8+ T lymphocyte response after prior peptide immunisation (IFN-γ by lymph node cells); assay type: in vivo; conditions: mice previously immunised s.c. with 25 μg TRP2180-188 peptide in CFA; 1 mg lipopeptide on skin for 3 days; day 30; FIG. 4
Experimental: as §1
(§2) Sandwich ELISA was used to measure IFN-γ. In brief, ELISA plates (Polylabo, France) were coated with the appropriate coating mAbs (monoclonal antibodies) in carbonate buffer and incubated at 4° C. overnight. Plates were blocked for 30 mn at room temperature with 150 μl of 20% FCS/PBS to each well. 50 μl supernatants from in vitro stimulated cells were then added to the plates and incubated overnight at 4° C. After a washing step, 50 μl/well of the biotinylated second-step Ab was added. Plates were incubated for 1 h at room temperature and washed. The enzyme conjugate (streptavidin-peroxidase) was then added to each well. Plates were incubated at room temperature for 1 h, washed and 100 μl/well of substrate was added, (1 mg/ml ABTS). Plates were read on an ELISA reader at a wavelength of 405 nm after color development (Labsystems iEMS reader, Helsinki, Finland). […]
The inventors next wanted to evaluate the capacity of the TRP2180-188 lipopeptide treatment to enhance a prior immunisation of mice with the TRP2180-188 peptide. […] At day 30, mice were sacrificed and the production of IFN-γ by skin draining lymph nodes cells was measured in vitro upon restimulation with the TRP2180-188 peptide.

[3] = test system: OVA-specific DO11-10 T cells; assay: In vivo activation of T lymphocytes by cutaneous lipopeptide application on the ear (FACS of draining lymph node); parameters: species or system BALB/c mice; conditions: daily 20 μl of 50 μM on the ear, vs olive oil; FIG. 1
Experimental: Lipopeptide activates T lymphocytes in vivo. BALB/c mice were injected intravenously with 20×10^6 DO11-10 TCR-anti OVA transgenic splenocytes. Mice where then treated during 4 days by applying daily 20 μl of 50 μM OVA323-339-lipopeptide or the vehicle directly on one ear. At day five, mice were sacrificed, the draining lymph node and the contra-lateral node cells were stained with the anti-idiotype KJ1-26 recognizing specifically DO11-10 T lymphocytes, anti-CD4 and anti-CD25 antibody. FACS analysis is shown for lymph node cells gated on CD4^+ T lymphocytes.
To analyze the potential curative effect of Tr1 cells in a different inflammatory model, the inventors set up skin inflammation experiments using the hapten oxazolone in three daily applications (FIG. 1). Because Tr1 cells need to be activated at the site of inflammation, they first tested the ability of cutaneous application of lipo-Ova peptide to stimulate T cells. BALB/c mice were injected with naive OVA-specific DO11-10 T cells and mice were treated during […] by applying daily 20 μl of 50 μM OVA323-339-lipopeptide or olive oil directly on the ear. […] In that model, three days after the induction of ear inflammation with oxazolone, the mice were treated with OVA-specific Th1, Th2 or Tr1 T-cell populations or a Tr1 cell clone (FIG. 2) and the lipo-OVA peptide was applied for 6 days.

[4] = test system: CD4+ mediated humoral response; assay: Enhancement of a CD4+ mediated humoral response (serum Ovalbumin-specific IgE); assay type: in vivo, Balb/C mice; conditions: mice immunised i.p. with 25 μg Ovalbumin in Alumn; 1 mg lipopeptide on skin for 3 days; day 20; FIG. 5
Experimental: as §1, §2
The inventors also wanted to know wether a lipopeptide epicutaneous application could enhance an humoral response elicited by CD4^+ T lymphocytes in immunised mice. […] At day 20, mice were sacrificed and the concentration of Ovalbumin-specific IgE immunoglobulin was measured in the serum of mice.

Row | Substance | production of IFN-γ by skin draining lymph nodes cells upon restimulation with the TRP2180-188 peptide [1] | production of IFN-γ by skin draining lymph nodes cells upon restimulation with the TRP2180-188 peptide [2] | activated (CD25+) OVA-specific (KJ1-26+) T cells in draining lymph nodes [3] | serum concentration of Ovalbumin-specific IgE [4]
1 | TRP2180-188 lipopeptide (SVYDFFVWL; also: lipid moiety, structure and place not given here; UniProt P29812 180-188, looked up, fragment) [lipopeptide derived from the tyrosinase related protein-2, restricted to the H2-K^b molecule; purchased from Bachem] | high amounts of IFN-γ were produced | enhancement of the IFNγ production |  | 
2 | OVA323-339-lipopeptide (KISQAVHAAHAEINEAG; also: lipid moiety, structure and place not given here; UniProt P01012 323-339, looked up, fragment) [peptide 323-339 from Ovalbumin, MHC Class II I-A^d restricted, formulated as lipopeptide; purchased from Bachem] |  |  | accumulation of activated (CD25^+) OVA-specific (KJ1-26^+) only in the ear draining-lymph node treated with the lipopeptide | increase in the serum concentration of Ovalbumin specific IgE
